Test results as given in ChEMBL document CHEMBL1201862, “PubChem BioAssay data set” (2004).
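96-well plates; 48 h exposure; 5 concentrations. Endpoints by linear interpolation between flanking doses. Not reached: highest tested concentration assigned. The concentration for 50% growth inhibition is given as GI50.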 The source made the active and inactive calls. No stated cut-off is given here; in the data, active = GI50 up to about 1.1 µM and inactive = higher.

Tests used:
Experiment in all cases: NCI anticancer screen, dose series, 48 h
RPMI-8226 = tested on: RPMI-8226
SK-MEL-28 = tested on: SK-MEL-28
SNB-19 = tested on: SNB-19
SK-OV-3 = tested on: SK-OV-3
OVCAR-8 = tested on: OVCAR-8
DU-145 = tested on: DU-145
TK-10 = tested on: TK-10
HCT-15 = tested on: HCT-15
OVCAR-5 = tested on: OVCAR-5
OVCAR-4 = tested on: OVCAR-4
UACC-257 = tested on: UACC-257
Hs-578T = tested on: Hs-578T
CAKI-1 = tested on: CAKI-1
CCRF-CEM = tested on: CCRF-CEM
RXF 393 = tested on: RXF 393
U-251 = tested on: U-251
SK-MEL-2 = tested on: SK-MEL-2
HCT-116 = tested on: HCT-116
SK-MEL-5 = tested on: SK-MEL-5
NCI/ADR-RES = tested on: NCI/ADR-RES

SMILES | GI50 (RPMI-8226) | GI50 (SK-MEL-28) | GI50 (SNB-19) | GI50 (SK-OV-3) | GI50 (OVCAR-8) | GI50 (DU-145) | GI50 (TK-10) | GI50 (HCT-15) [µM] | GI50 (OVCAR-5) | GI50 (OVCAR-4) | GI50 (UACC-257) | GI50 (Hs-578T) | GI50 (CAKI-1) | GI50 (CCRF-CEM) | GI50 (RXF 393) | GI50 (U-251) | GI50 (SK-MEL-2) | GI50 (HCT-116) | GI50 (SK-MEL-5) | GI50 (NCI/ADR-RES)
NC(CC1=CCC=CC1)C(=O)O (centres undefined) | 9.2 µM (inactive) | 80.5 µM (inactive) | > 100 µM (inactive) | 98.2 µM (inactive) | 67.1 µM (inactive) | > 100 µM (inactive) | > 100 µM (inactive) | 57.9 | > 100 µM (inactive) | > 100 µM (inactive) | > 100 µM (inactive) | 50.6 µM (inactive) | > 100 µM (inactive) | 62.8 µM (inactive) | 70.5 µM (inactive) | 64.4 µM (inactive) | 53.7 µM (inactive) | 55.1 µM (inactive) | > 100 µM (inactive) | –
OCCCNc1ccnc2cc(Cl)ccc12 | > 100 µM (inactive) | > 100 µM (inactive) | > 100 µM (inactive) | > 100 µM (inactive) | > 100 µM (inactive) | – | 21 µM (inactive) | > 100 | > 100 µM (inactive) | > 100 µM (inactive) | > 100 µM (inactive) | – | > 100 µM (inactive) | > 100 µM (inactive) | > 100 µM (inactive) | > 100 µM (inactive) | > 100 µM (inactive) | 57.9 µM (inactive) | > 100 µM (inactive) | –
CN(C)C(=N)/N=C(\N)Nc1cccc(Cl)c1 | > 100 µM (inactive) | > 100 µM (inactive) | > 100 µM (inactive) | > 100 µM (inactive) | 61.4 µM (inactive) | – | > 100 µM (inactive) | > 100 | > 100 µM (inactive) | > 100 µM (inactive) | 90.8 µM (inactive) | > 100 µM (inactive) | 48.2 µM (inactive) | – | – | > 100 µM (inactive) | > 100 µM (inactive) | 85.7 µM (inactive) | 28.1 µM (inactive) | > 100 µM (inactive)
COC(=O)C(=O)C(C(=O)C=C(C)C)C(=O)C(=O)Nc1nc2ccc([N+](=O)[O-])cc2s1 (centres undefined) | 28.4 µM (inactive) | 63.2 µM (inactive) | > 100 µM (inactive) | 39.9 µM (inactive) | > 100 µM (inactive) | – | 38.5 µM (inactive) | 50.6 | > 100 µM (inactive) | 52.5 µM (inactive) | 79.8 µM (inactive) | – | 29.5 µM (inactive) | 38.7 µM (inactive) | 12.9 µM (inactive) | 49.8 µM (inactive) | 49.5 µM (inactive) | 50 µM (inactive) | 35.7 µM (inactive) | –
NCCCNCCCNCCCN | 16.4 µM (inactive) | > 100 µM (inactive) | > 100 µM (inactive) | > 100 µM (inactive) | > 100 µM (inactive) | > 100 µM (inactive) | > 100 µM (inactive) | > 100 | > 100 µM (inactive) | > 100 µM (inactive) | > 100 µM (inactive) | – | > 100 µM (inactive) | – | > 100 µM (inactive) | > 100 µM (inactive) | > 100 µM (inactive) | > 100 µM (inactive) | > 100 µM (inactive) | > 100 µM (inactive)
COc1cc2c(c(OC)c1O)-c1ccc(SC)c(=O)cc1C(NC(C)=O)CC2 (centres undefined) | < 0.0121 µM (active) | < 0.01 µM (active) | 0.019 µM (active) | 0.215 µM (active) | 0.0307 µM (active) | – | 2.29 µM (inactive) | 1.06 | 4.83 µM (inactive) | > 40.6 µM (inactive) | 2.24 µM (inactive) | – | 0.285 µM (active) | < 0.01 µM (active) | 0.0171 µM (active) | < 0.0146 µM (active) | < 0.01 µM (active) | < 0.01 µM (active) | < 0.01 µM (active) | –
Cc1c(C#N)c(N)n(C2OC(CO)C(O)C(O)C2O)c(=S)c1C#N (centres undefined) | > 100 µM (inactive) | > 100 µM (inactive) | > 100 µM (inactive) | 6.47 µM (inactive) | > 100 µM (inactive) | > 100 µM (inactive) | > 100 µM (inactive) | > 100 | > 100 µM (inactive) | > 100 µM (inactive) | > 100 µM (inactive) | > 100 µM (inactive) | – | > 100 µM (inactive) | > 100 µM (inactive) | > 100 µM (inactive) | – | > 100 µM (inactive) | > 100 µM (inactive) | –
O=C(CCN1CCC(CCO)CC1)Nc1ccc2c(c1)C(=O)c1ccc(NC(=O)CCN3CCC(CCO)CC3)cc1C2=O | 25.9 µM (inactive) | 26.1 µM (inactive) | 16.9 µM (inactive) | 7.96 µM (inactive) | 9.89 µM (inactive) | – | 24.7 µM (inactive) | 27.7 | > 100 µM (inactive) | 12.5 µM (inactive) | 19.5 µM (inactive) | – | 34.8 µM (inactive) | 4.22 µM (inactive) | 30.1 µM (inactive) | 9.1 µM (inactive) | 3.76 µM (inactive) | 9.46 µM (inactive) | 19.4 µM (inactive) | –
CN1C(=O)N(C)C2(O)c3ccccc3C(=O)C12O (centres undefined) | > 100 µM (inactive) | > 100 µM (inactive) | > 100 µM (inactive) | > 100 µM (inactive) | > 100 µM (inactive) | – | > 100 µM (inactive) | > 100 | > 100 µM (inactive) | > 100 µM (inactive) | > 100 µM (inactive) | – | > 100 µM (inactive) | > 100 µM (inactive) | > 100 µM (inactive) | > 100 µM (inactive) | > 100 µM (inactive) | > 100 µM (inactive) | > 100 µM (inactive) | –
O=C(N/N=C/c1ccccc1O)c1ccccc1Nc1ccccc1C(=O)N/N=C/c1ccccc1O | – | 0.182 µM (active) | 3.41 µM (inactive) | 3.1 µM (inactive) | 0.647 µM (active) | 2.25 µM (inactive) | 5.87 µM (inactive) | 0.329 | > 100 µM (inactive) | 0.375 µM (active) | 2.97 µM (inactive) | – | 0.617 µM (active) | 0.931 µM (active) | – | 3.48 µM (inactive) | – | 0.198 µM (active) | 0.541 µM (active) | 1 µM (active)
O=C(Nc1cccc(C(F)(F)F)c1)C(=O)C(C(=O)c1ccc2ccccc2c1)C1OC(=O)c2ccccc21 (centres undefined) | 3.68 µM (inactive) | 6.79 µM (inactive) | 6.25 µM (inactive) | 21.6 µM (inactive) | 6.35 µM (inactive) | 26.5 µM (inactive) | 22.6 µM (inactive) | 8.13 | 14.3 µM (inactive) | 9.12 µM (inactive) | 11.5 µM (inactive) | 7.14 µM (inactive) | 12.4 µM (inactive) | 3.18 µM (inactive) | 4.16 µM (inactive) | 4.08 µM (inactive) | 8.57 µM (inactive) | 6.82 µM (inactive) | 10.5 µM (inactive) | –
C=C(C)[C@H]1[C@@H]2OC(=O)[C@H]1[C@]1(O)C[C@H]3OC34C(=O)O[C@H]2[C@@]41C.CC(C)(O)[C@H]1[C@@H]2OC(=O)[C@H]1[C@]1(O)C[C@H]3OC34C(=O)O[C@H]2[C@@]41C (some centres undefined) | > 100 µM (inactive) | > 100 µM (inactive) | > 100 µM (inactive) | > 100 µM (inactive) | > 100 µM (inactive) | > 100 µM (inactive) | > 100 µM (inactive) | > 100 | > 100 µM (inactive) | > 100 µM (inactive) | > 100 µM (inactive) | > 100 µM (inactive) | > 100 µM (inactive) | > 100 µM (inactive) | > 100 µM (inactive) | > 100 µM (inactive) | > 100 µM (inactive) | > 100 µM (inactive) | > 100 µM (inactive) | –
N#Cc1nc(NC(=O)c2ccccc2)sc1N | 9.82 µM (inactive) | > 10 µM (inactive) | > 10 µM (inactive) | > 10 µM (inactive) | > 10 µM (inactive) | > 10 µM (inactive) | > 10 µM (inactive) | > 10 | > 10 µM (inactive) | > 6.07 µM (inactive) | > 10 µM (inactive) | – | > 10 µM (inactive) | 4.54 µM (inactive) | > 10 µM (inactive) | > 10 µM (inactive) | > 10 µM (inactive) | > 10 µM (inactive) | > 10 µM (inactive) | > 9.48 µM (inactive)
CCc1ccc2c(c1)CC1(C2)Cc2cc3c(cc2C1)C(=O)CC3 (centres undefined) | 18.5 µM (inactive) | – | – | 25.1 µM (inactive) | 21.9 µM (inactive) | – | 38.6 µM (inactive) | 23.9 | 27.5 µM (inactive) | 15 µM (inactive) | 8.39 µM (inactive) | > 100 µM (inactive) | – | 2.94 µM (inactive) | 36.9 µM (inactive) | 18.8 µM (inactive) | 4.26 µM (inactive) | 12.1 µM (inactive) | 5.01 µM (inactive) | 40.5 µM (inactive)
C[C@@H]1[C@@H]2[C@@H](C=C3C4CCC5Cc6nc7c(nc6C[C@@]5(C)C4C[C@H](O)[C@]32CO)CC2CCC3C4=C[C@H]5O[C@@]6(OC(C)(CO)C[C@@H]6O)[C@H](C)[C@@]5(O)[C@]4(C)[C@@H](O)CC3[C@]2(C)C7)O[C@]12CCC(C)(C)O2 (some centres undefined) | 0.00144 µM (active) | 0.0305 µM (active) | 0.111 µM (active) | 0.0167 µM (active) | 0.425 µM (active) | – | 0.473 µM (active) | 0.135 | 0.488 µM (active) | 0.959 µM (active) | 0.0668 µM (active) | – | 0.021 µM (active) | 0.0117 µM (active) | 0.00082 µM (active) | 0.0053 µM (active) | 0.0189 µM (active) | 0.0306 µM (active) | 0.0324 µM (active) | –
CNC(=O)OCc1nc(SC2CCCCO2)n(C)c1COC(=O)NC (centres undefined) | > 100 µM (inactive) | > 100 µM (inactive) | > 100 µM (inactive) | > 100 µM (inactive) | > 100 µM (inactive) | – | – | > 100 | > 100 µM (inactive) | > 100 µM (inactive) | > 100 µM (inactive) | – | > 100 µM (inactive) | > 100 µM (inactive) | > 100 µM (inactive) | > 100 µM (inactive) | > 100 µM (inactive) | > 100 µM (inactive) | > 100 µM (inactive) | > 100 µM (inactive)
